Residue numbers refer to the chain shown, from its start. Several values for one entry are separate records, joined by “and”; a condition that tells them apart may be missing. Identical values can stand only once.
How the values were obtained:
PfCRT variant E198A = biological target: T1, PfCRT variant E198A (Plasmodium falciparum, UniProt Q9N623, A220S/E198A/I356T/K76T/M74I/N326S/N75E/Q271E/R371I); experiment: CQ uptake assay, oocytes expressing E198A; type: cell-based
T1 sequence (Q9N623 1-424 M74I/N75E/K76T/E198A/A220S/Q271E/N326S/I356T/R371I): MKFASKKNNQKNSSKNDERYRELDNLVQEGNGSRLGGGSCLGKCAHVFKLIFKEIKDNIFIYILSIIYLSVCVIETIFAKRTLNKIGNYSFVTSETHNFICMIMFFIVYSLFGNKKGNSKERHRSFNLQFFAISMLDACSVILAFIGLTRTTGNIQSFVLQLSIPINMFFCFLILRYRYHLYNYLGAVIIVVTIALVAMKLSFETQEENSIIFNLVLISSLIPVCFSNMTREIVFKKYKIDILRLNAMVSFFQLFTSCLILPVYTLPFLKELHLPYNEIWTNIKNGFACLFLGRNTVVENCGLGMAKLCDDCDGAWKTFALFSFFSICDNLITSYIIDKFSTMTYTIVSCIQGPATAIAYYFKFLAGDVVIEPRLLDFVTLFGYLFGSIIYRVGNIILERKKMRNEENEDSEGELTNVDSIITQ
Method: (§1) Site-directed mutagenesis of PfCRT^Dd2 was performed as described using the megaprimer method with overlap extension[21],[54]. The primer pairs used are listed in Supplementary Table 6. Please note that a codon-optimized and oocyte-adapted version of PfCRT^Dd2 was used[22] (Supplementary Fig. 16). The resulting DNA fragment was cloned into the SP64T expression vector and verified by sequencing.
(§2) Oocytes were obtained as described previously. Briefly, adult (>2 years old) female X. laevis frogs (NASCO) were anesthetized in a cooled solution of ethyl 3-amino benzoate methanesulfonate (0.1%, w/v), followed by a surgical removal of parts of the ovary. The ovary lobes were carefully dissected and small pieces of oocytes were incubated in Ca^2+-free ND96 buffer (96 mM NaCl, 2 mM KCl, 1 mM MgCl2 buffered with 5 mM HEPES/NaOH, pH 7.5) supplemented with collagenase D (0.1%, w/v; Roche), BSA (0.5%, w/v), and 9 mm Na2HPO4 at 18 °C for 14-16 h while gentle shaking. After incubation, the oocytes were carefully washed several times with ND96 buffer (96 mM NaCl, 2 mM KCl, 1.8 mM CaCl2, 1 mM MgCl2 buffered with 5 mM HEPES/NaOH, pH 7.5) supplemented with 100 mg l^−1 gentamycin). Defolliculated and healthy-looking stage V-VI oocytes were manually selected for RNA microinjection. The RNA was generated as following: The codon-optimized sequences of PfCRT variants were cloned into the pSP64T expression vector. After vector linearization using the restriction endonucleases BamHI or SalI (New England Biolabs), transcription was performed using the in vitro SP6 mMessage mMachine Kit (Ambion)[34]. The obtained RNA was kept at −80 °C and diluted with nuclease-free water to a concentration of 0.6 μg μl^−1. Precision-bore glass capillary tubes (3.5-inch glass capillaries; Drummond Scientific Co.) were pulled on a vertical puller (P-87 Flaming/Brown micropipette puller, Sutter Instrument Co.), graduated, and placed on a microinjector (Nanoject II Auto-Nanoliter Injector, Drummond Scientific Co.). 50 nl of nuclease-free water alone (control oocytes) or 50 nl of 0.6 μg μl^−1 RNA were injected under stereomicroscopic control. Injected oocytes were incubated for 46–72 h at 18 °C with twice-daily buffer changes before usage in experiments.
Drug uptake assays were performed as described previously[21],[22],[24],[34]. […] The direction of radio-labeled drug transport is here from the mostly acidic extracellular solution (pH 4.5 or 6.0, as indicated) into the oocyte cytosol (pH ∼ 7.2), which corresponds to the efflux of drug from the acidic digestive vacuole (pH 5.2) into the parasite cytoplasm (pH 7.2). The topology of PfCRT in the oolemma is such that both the N- and C-terminus face the extracellular milieu[3],[22]. In the parasite, the N- and C-terminus face the lumen of the digestive vacuole. CQ uptake kinetics were performed by incubating oocytes in ND96 buffer adjusted to a pH of 4.5, 5.0, 5.5, or 6.0 and supplemented with 50 nM [^3H]CQ and one of 7 different CQ concentrations (10 µM, 50 µM, 100 µM, 200 µM, 300 µM, 400 µM, 500 µM CQ). The reaction was stopped at the 60 min time point, which is in the linear uptake range[22],[34] (Supplementary Fig. 17). […] The radioactivity of each sample was measured using a liquid scintillation analyzer Tri-Carb 4910 TR (PerkinElmer). Oocytes that were injected with water instead of RNA were analyzed in parallel, representing the uptake of a drug by diffusion and/or endogenous permeation pathways. […]

PfCRT variant D311A = biological target: T2, PfCRT variant D311A (Plasmodium falciparum, UniProt Q9N623, A220S/D311A/I356T/K76T/M74I/N326S/N75E/Q271E/R371I); experiment: CQ uptake assay, oocytes expressing D311A; type: cell-based
T2 sequence (Q9N623 1-424 M74I/N75E/K76T/A220S/Q271E/D311A/N326S/I356T/R371I): T1 sequence (Q9N623 1-424 M74I/N75E/K76T/E198A/A220S/Q271E/N326S/I356T/R371I) with A198E, D311A
Method: as §1, §2
Drug uptake assays were performed as described previously[21],[22],[24],[34]. […] The direction of radio-labeled drug transport is here from the mostly acidic extracellular solution (pH 4.5 or 6.0, as indicated) into the oocyte cytosol (pH ∼ 7.2), which corresponds to the efflux of drug from the acidic digestive vacuole (pH 5.2) into the parasite cytoplasm (pH 7.2). The topology of PfCRT in the oolemma is such that both the N- and C-terminus face the extracellular milieu[3],[22]. In the parasite, the N- and C-terminus face the lumen of the digestive vacuole. CQ uptake kinetics were performed by incubating oocytes in ND96 buffer adjusted to a pH of 4.5, 5.0, 5.5, or 6.0 and supplemented with 50 nM [^3H]CQ and one of 7 different CQ concentrations (10 µM, 50 µM, 100 µM, 200 µM, 300 µM, 400 µM, 500 µM CQ). The reaction was stopped at the 60 min time point, which is in the linear uptake range[22],[34] (Supplementary Fig. 17). For determination of the amount of drug uptake for each oocyte, the reaction medium was removed and the oocytes were washed three times with 2 ml of ice-cold ND96 buffer. Each oocyte was individually transferred to a scintillation vial containing 5% sodium dodecyl sulfate (200 μl) for lysis. The radioactivity of each sample was measured using a liquid scintillation analyzer Tri-Carb 4910 TR (PerkinElmer). Oocytes that were injected with water instead of RNA were analyzed in parallel, representing the uptake of a drug by diffusion and/or endogenous permeation pathways. The resulting value represents the “background“ level of drug accumulation in oocytes (in-depth discussion in[22]). […]

[1] = E198A, 50 µM CQ, 1 h, mean ± SEM
[2] = pH 4.5, single replicates, Fig 1d left
[3] = pH 6.0, single replicates, Fig 1d left
[4] = D311A, 50 µM CQ, 1 h, mean ± SEM

SMILES: CCN(CC)CCCC(C)Nc1ccnc2cc(Cl)ccc12 (centres unmarked) [CQ, chloroquine]
- Activity at pH 4.5 (PfCRT variant E198A; [1]): 1.23 ± 0.15 pmol h-1 oocyte-1
- Activity at pH 6.0 (PfCRT variant E198A; [1]): 3.10 ± 0.44 pmol h-1 oocyte-1
- R-value (PfCRT variant E198A; E198A, CQ transport at pH 4.5 / pH 6.0): 0.44 ± 0.11
- E198A transport activity pH 4.5 (PfCRT variant E198A; [2]): 1.49 pmol oocyte-1 h-1 and 1.34 pmol oocyte-1 h-1 and 0.87 pmol oocyte-1 h-1
- E198A transport activity pH 6.0 (PfCRT variant E198A; [3]): 2.08 pmol oocyte-1 h-1 and 3.94 pmol oocyte-1 h-1 and 3.27 pmol oocyte-1 h-1
- Activity at pH 4.5 (PfCRT variant D311A; [4]): 1.07 ± 0.25 pmol h-1 oocyte-1
- Activity at pH 6.0 (PfCRT variant D311A; [4]): 3.22 ± 0.61 pmol h-1 oocyte-1
- R-value (PfCRT variant D311A; D311A, CQ transport at pH 4.5 / pH 6.0): 0.33 ± 0.05
- D311A transport activity pH 4.5 (PfCRT variant D311A; [2]): 0.58 pmol oocyte-1 h-1 and 1.64 pmol oocyte-1 h-1 and 0.99 pmol oocyte-1 h-1
- D311A R-value (PfCRT variant D311A; pH 4.5 vs pH 6.0, Fig 1d left): 0.22 and 0.35 and 0.42
- D311A transport activity pH 6.0 (PfCRT variant D311A; [3]): 2.63 pmol oocyte-1 h-1 and 4.69 pmol oocyte-1 h-1 and 2.33 pmol oocyte-1 h-1

From article PMC10349806 (Nature Communications, 2023)
